{"source": "patent US20230172930A1", "about": "“USE OF COMPLEMENT FACTOR D INHIBITORS ALONE OR IN COMBINATION WITH ANTI-C5 ANTIBODIES FOR TREATMENT OF PAROXYSMAL NOCTURNAL HEMOGLOBINURIA” (Alexion Pharmaceuticals, Inc., priority 2020, published 2023)", "key": {"PNH erythrocytes": {"system": "PNH erythrocytes", "experiment": "Phase 2 study: PNH clone size and C3 fragment deposition on erythrocytes by flow cytometry (anti-human C3d antibody)", "format": "in vivo", "conditions": "Patient K", "method": "FIGS. 4A-4D are graphs depicting the effect on complement biomarkers and PNH clone size. […] Arithmetic mean and standard derivation (SD) were shown for all but the clone size of C3d^+ PNH erythrocytes where geometric mean was used, and the range was shown at each time point. NHS, normal human serum; BL, baseline; LLN, lower limit normal; ULN, upper limit normal.\nPharmacodynamics were determined by measuring serum AP activity with AP hemolysis assay. Serum CP activity, Plasma Bb concentration, serum FD, and C3 concentrations were also monitored. Complement tests were conducted by a central lab using commercial kits, with the exception of AP hemolysis assay which was conducted internally for exploratory purposes. At each AP hemolysis run, a single normal human serum sample was included in addition to the patient serum samples so hemolysis values of individual patient serum samples could be standardized to the hemolysis value of the normal human serum sample. Finally, PNH clone size and C3 fragment deposition on erythrocytes was measured using flow cytometry with FITC conjugated anti-human C3d antibody."}, "[1]": {"system": "PNH patients with an inadequate response to eculizumab", "experiment": "Phase 2 study: FACIT-Fatigue Scale V4 (score range 0-52, higher = improvement)", "format": "in vivo, human", "conditions": "for FACIT-Fatigue, mean: N=11", "text": "This study utilized the validated quality of life instrument FACIT-Fatigue Scale (Version 4). This self-reporting instrument measures the severity of fatigue being experienced on a scale of 0 to 52 where a score of less than 30 represents severe fatigue and higher scores indicate improvement in fatigue. A 3-point change is clinically meaningful on this scale. A 10-point or greater change is highly significant on this scale. […] This constitutes an upper limit of the disclosure."}, "[2]": {"experiment": "Phase 2 study: plasma danicopan pharmacokinetics (LC-MS/MS)", "format": "in vivo, human", "text": "The mean (% CV) Ctrough value was 105 (57) ng/mL during these intensive sampling days. Sampling at through times over the rest of the study duration under less controlled conditions yielded a mean (% CV) Ctrough value of 150 (59) ng/mL."}, "[3]": {"system": "PNH patients with an inadequate response to eculizumab", "experiment": "Phase 2 study: safety and tolerability (TEAEs)"}, "[4]": {"conditions": "Week 12, danicopan 100 mg TID + eculizumab 900 mg q14d"}, "[5]": {"conditions": "Week 24, danicopan 150 mg TID + eculizumab 900 mg q14d"}}}
{"smiles": "CC(=O)c1nn(CC(=O)N2C[C@H](F)C[C@H]2C(=O)Nc2cccc(Br)n2)c2ccc(-c3cnc(C)nc3)cc12", "note": "[Danicopan, danicopan]", "values": [{"measurement": "PNH RBC clone size", "setting": "PNH erythrocytes; Baseline, before danicopan, on eculizumab 900 mg q14d", "result": 55, "unit": "%"}, {"measurement": "C3d^+ PNHRBCs", "setting": "PNH erythrocytes; [4]", "result": 44.2, "unit": "%"}, {"measurement": "PNH RBC clone size", "setting": "PNH erythrocytes; [4]", "result": 84, "unit": "%"}, {"measurement": "C3d^+ PNHRBCs", "setting": "PNH erythrocytes; [5]", "result": 6.30, "unit": "%"}, {"measurement": "PNH RBC clone size", "setting": "PNH erythrocytes; [5]", "result": 91, "unit": "%"}, {"measurement": "FACIT-Fatigue, mean", "setting": "[1]; Baseline, before danicopan, on eculizumab", "result": 34}, {"measurement": "FACIT-Fatigue, mean", "setting": "[1]; Week 24, danicopan 100-200 mg TID + eculizumab", "result": 45}, {"measurement": "FACIT-Fatigue", "setting": "[1]; Patient A, Baseline, before danicopan, on eculizumab 900 mg q14d", "result": 33}, {"measurement": "FACIT-Fatigue", "setting": "[1]; Patient A, Week 12, danicopan 150 mg TID + eculizumab 900 mg q14d", "result": 48}, {"measurement": "FACIT-Fatigue", "setting": "[1]; Patient A, Week 24, danicopan 150 mg TID + eculizumab 900 mg q14d", "result": 52}, {"measurement": "FACIT-Fatigue", "setting": "[1]; Patient B, Baseline, before danicopan, on eculizumab 1200 mg q14d", "result": 45}, {"measurement": "FACIT-Fatigue", "setting": "[1]; Patient B, Week 12, danicopan 100 mg TID + eculizumab 900 mg q14d", "result": 49}, {"measurement": "FACIT-Fatigue", "setting": "[1]; Patient B, Week 24, danicopan 100 mg TID + eculizumab 900 mg q14d", "result": 48}, {"measurement": "FACIT-Fatigue", "setting": "[1]; Patient C, Baseline, before danicopan, on eculizumab 900 mg q14d", "result": 17}, {"measurement": "FACIT-Fatigue", "setting": "[1]; Patient C, Week 12, danicopan 150 mg TID + eculizumab 900 mg q14d", "result": 36}, {"measurement": "FACIT-Fatigue", "setting": "[1]; Patient C, Week 24, danicopan 150 mg TID + eculizumab 900 mg q14d", "result": 26}, {"measurement": "FACIT-Fatigue", "setting": "[1]; Patient D, Baseline, before danicopan, on eculizumab 900 mg q14d", "result": 18}, {"measurement": "FACIT-Fatigue", "setting": "[1]; Patient D, Week 12, danicopan 150 mg TID + eculizumab 900 mg q14d", "result": 41}, {"measurement": "FACIT-Fatigue", "setting": "[1]; Patient D, Week 24, danicopan 150 mg TID + eculizumab 900 mg q14d", "result": 41}, {"measurement": "FACIT-Fatigue", "setting": "[1]; Patient E, Baseline, before danicopan, on eculizumab 1200 mg q14d", "result": 42}, {"measurement": "FACIT-Fatigue", "setting": "[1]; Patient E, Week 12, danicopan 150 mg TID + eculizumab 1200 mg q14d", "result": 25}, {"measurement": "FACIT-Fatigue", "setting": "[1]; Patient E, Week 24, danicopan 150 mg TID + eculizumab 1200 mg q14d", "result": 38}, {"measurement": "FACIT-Fatigue score", "setting": "[1]; Patient F, Baseline", "result": 9, "unit": "points"}, {"measurement": "FACIT-Fatigue improvement", "setting": "[1]; Patient F, Baseline to Week 24", "result": 43, "unit": "point"}, {"measurement": "FACIT-Fatigue", "setting": "[1]; Patient F, Baseline, before danicopan, on eculizumab 900 mg q14d", "result": 9}, {"measurement": "FACIT-Fatigue", "setting": "[1]; Patient F, Week 12, danicopan 150 mg TID + eculizumab 900 mg q14d", "result": 48}, {"measurement": "FACIT-Fatigue score", "setting": "[1]; Patient F, Week 24", "result": 52, "unit": "points"}, {"measurement": "FACIT-Fatigue", "setting": "[1]; Patient F, Week 24, danicopan 150 mg TID + eculizumab 900 mg q14d", "result": 52}, {"measurement": "FACIT-Fatigue", "setting": "[1]; Patient G, Baseline, before danicopan, on eculizumab 1500 mg q14d", "result": 28}, {"measurement": "FACIT-Fatigue", "setting": "[1]; Patient G, Week 12, danicopan 100 mg TID + eculizumab 1500 mg q14d", "result": 44}, {"measurement": "FACIT-Fatigue", "setting": "[1]; Patient G, Week 24, danicopan 100 mg TID + eculizumab 1500 mg q14d", "result": 38}, {"measurement": "FACIT-Fatigue", "setting": "[1]; Patient H, Baseline, before danicopan, on eculizumab 900 mg q14d", "result": 47}, {"measurement": "FACIT-Fatigue", "setting": "[1]; Patient H, Week 12, danicopan 200 mg TID + eculizumab 900 mg q14d", "result": 49}, {"measurement": "FACIT-Fatigue", "setting": "[1]; Patient H, Week 24, danicopan 200 mg TID + eculizumab 900 mg q14d", "result": 49}, {"measurement": "FACIT-Fatigue", "setting": "[1]; Patient I, Baseline, before danicopan, on eculizumab 900 mg q14d", "result": 48}, {"measurement": "FACIT-Fatigue", "setting": "[1]; Patient I, Week 12, danicopan 100 mg TID + eculizumab 900 mg q14d", "result": 50}, {"measurement": "FACIT-Fatigue", "setting": "[1]; Patient I, Week 24, danicopan 200 mg TID + eculizumab 900 mg q14d", "result": 49}, {"measurement": "FACIT-Fatigue", "setting": "[1]; Patient J, Baseline, before danicopan, on eculizumab 1200 mg q14d", "result": 49}, {"measurement": "FACIT-Fatigue", "setting": "[1]; Patient J, Week 12, danicopan 100 mg TID + eculizumab 1200 mg q14d", "result": 51}, {"measurement": "FACIT-Fatigue", "setting": "[1]; Patient J, Week 24, danicopan 200 mg TID + eculizumab 1200 mg q14d", "result": 51}, {"measurement": "FACIT-Fatigue", "setting": "[1]; Patient K, Baseline, before danicopan, on eculizumab 900 mg q14d", "result": 33}, {"measurement": "FACIT-Fatigue", "setting": "[1]; Patient K, Week 12, danicopan 100 mg TID + eculizumab 900 mg q14d", "result": 46}, {"measurement": "FACIT-Fatigue", "setting": "[1]; Patient K, Week 24, danicopan 150 mg TID + eculizumab 900 mg q14d", "result": 50}, {"measurement": "mean increase in FACIT-Fatigue score", "setting": "[1]; at 24 Weeks relative to Baseline on eculizumab", "result": 11, "unit": "points"}, {"measurement": "Ctrough, mean (% CV)", "setting": "[2]; intensive sampling days, Week 7", "result": "105 (57) ng/mL"}, {"measurement": "Ctrough, mean (% CV)", "setting": "[2]; trough sampling over the rest of the study, less controlled conditions", "result": "150 (59) ng/mL"}, {"measurement": "discontinuations due to TEAEs", "setting": "[3]; 11 patients completing treatment", "result": "no discontinuations due to TEAEs"}, {"measurement": "Grade 3 direct bilirubin elevation with grade 1 ALT elevation", "setting": "[3]; Day 70, resolved by Day 77, attributed to breakthrough hemolysis", "result": "One patient experienced a Grade 3 direct bilirubin elevation"}, {"measurement": "severe adverse event of pneumonia requiring hospitalization", "setting": "[3]; Day 145, recovered Day 152, relationship to study drug considered unlikely", "result": "The second patient experienced a severe adverse event of pneumonia"}, {"measurement": "Number of Patients Reporting a TEAE, %", "setting": "[3]; N=11", "result": "(100) %"}, {"measurement": "Abdominal pain, %", "setting": "[3]; TEAE, N=11", "result": "(18) %"}, {"measurement": "Contusion, %", "setting": "[3]; TEAE, N=11", "result": "(18) %"}, {"measurement": "Cough, %", "setting": "[3]; TEAE, N=11", "result": "(18) %"}, {"measurement": "Fatigue, %", "setting": "[3]; TEAE, N=11", "result": "(18) %"}, {"measurement": "Headache, %", "setting": "[3]; TEAE, N=11", "result": "(27) %"}, {"measurement": "Nasopharyngitis, %", "setting": "[3]; TEAE, N=11", "result": "(18) %"}, {"measurement": "Nausea, %", "setting": "[3]; TEAE, N=11", "result": "(18) %"}, {"measurement": "Oropharyngeal, %", "setting": "[3]; TEAE, N=11", "result": "(18) %"}, {"measurement": "Pain in extremity, %", "setting": "[3]; TEAE, N=11", "result": "(18) %"}, {"measurement": "tolerability", "setting": "[3]; danicopan 100-200 mg TID + eculizumab, 24 weeks", "result": "generally well tolerated"}, {"measurement": "discontinuation due to serious adverse event (worsening pulmonary hypertension/edema)", "setting": "[3]; of twelve enrolled, considered unlikely related to danicopan", "result": "One discontinued after 2 doses"}, {"measurement": "TEAEs mild to moderate in severity", "setting": "[3]; share of treatment TEAEs", "result": 96, "unit": "%"}]}
